{
  "source": "patent US11160803B2",
  "about": "“Phthalazinone derivatives” (KUDOS PHARMACEUTICALS LIMITED, priority 2003, dated 2021)",
  "key": {"[1]": {"tested_on": "Brca1 wild type (11CO) ES cells", "assay": "Clonogenic survival, continuous exposure, Brca1 wild type ES cells", "assay_type": "cell-based", "conditions": "matched wild type cells (Brca1), clonogenic assay, continuous exposure (FIG. 1A)", "method": "(§1) To assess the stand alone activity of a PARP inhibitor on Braca 1 and 2 deficient cells the following protocols were used.\n(§2) Compound (4) was dissolved in DMSO at 10 mM and stored at −20° C. in the dark.\n(§3) VC8 cells and the mouse Brca2 BAC complemented derivatives were as described in M. Kraakman-van der Zwet, et al., Mol Cell Biol 22, 669-79 (2002)). ES cells defective in Brca2 function have been described previously (Tutt, et al., EMBO Rep 3, 255-60 (2002)). The construction of ES cells defective in Brca1 will be described elsewhere but have previously been validated (Foray, et al., Embo J, 22, 2860-71 (2003)).\n(§4) For measurement of cellular sensitivity to a PARP inhibitor (compound 4), cell cultures in exponential growth were trypsinised and seeded at various densities in 6-well plates onto Mitomycin C inactivated mouse embryonic fibroblasts and where appropriate treated with the test compound after 18 hours. For continuous exposure, cells were re-fed every 4 days with fresh medium and inhibitor. After 10-14 days, cells were washed with PBS, fixed in methanol and stained with crystal violet. Colonies containing greater than approximately 50 cells were counted. Experiments were performed at least three times in triplicate."}, "[2]": {"tested_on": "Chinese hamster ovary cells deficient in Brca2 (VC8)", "assay": "Clonogenic survival, continuous exposure, Brca2 deficient VC8 cells", "assay_type": "cell-based"}, "[3]": {"tested_on": "Brca2 deficient (Cre24) ES cells", "assay": "Clonogenic survival, continuous exposure, Brca2 deficient ES cells", "assay_type": "cell-based", "conditions": "ratio of SF50 wild type / Brca2 deficient ES cells", "method": "as §1, §2, §3, §4"}, "[4]": {"tested_on": "Brca2 wild type (D3) ES cells", "assay": "Clonogenic survival, continuous exposure, Brca2 wild type ES cells", "assay_type": "cell-based", "conditions": "matched wild type cells (Brca2), clonogenic assay, continuous exposure (FIG. 1B)", "method": "as §1, §2, §3, §4"}, "[5]": {"tested_on": "Brca2-complemented derivative (VC8-BAC)", "assay": "Clonogenic survival, continuous exposure, Brca2-complemented VC8-BAC cells", "assay_type": "cell-based, Chinese hamster", "conditions": "matched control VC8-BAC, clonogenic assay (FIG. 2)"}, "[6]": {"tested_on": "Brca1 deficient (Cre10) ES cells", "assay": "Clonogenic survival, continuous exposure, Brca1 deficient ES cells", "assay_type": "cell-based", "method": "as §1, §2, §3, §4"}},
  "data": [
    {"smiles": "O=C(c1cc(Cc2n[nH]c(=O)c3ccccc23)ccc1F)N1CCCNCC1", "note": "[compound 4, 4-[3-([1,4]diazepane-1-carbonyl)-4-fluorobenzyl]-2H-phthalazin-1-one]", "values": [
      {"measurement": "SF50 (dosage at which 50% of cells survived)", "setting": "[1]", "result": 7, "unit": "µM"},
      {"measurement": "SF50 (dosage at which 50% of cells survived)", "setting": "[2]; Brca2 deficient VC8 line, clonogenic assay (FIG. 2)", "result": 50, "unit": "nM"},
      {"measurement": "fold enhanced sensitivity of Brca2 mutant cells compared to wild type cells", "setting": "[2]; ratio of SF50 VC8-BAC / VC8", "result": 600, "unit": "fold"},
      {"measurement": "fold enhanced sensitivity of Brca2 mutant cells compared to wild type cells", "setting": "[3]", "result": "1,500 fold"},
      {"measurement": "SF50 (dosage at which 50% of cells survived)", "setting": "[4]", "result": 18, "unit": "µM"},
      {"measurement": "SF50 (dosage at which 50% of cells survived)", "setting": "[5]", "result": 30, "unit": "µM"},
      {"measurement": "SF50 (dosage at which 50% of cells survived)", "setting": "[6]; cells deficient in Brca1, clonogenic assay, continuous exposure (FIG. 1A)", "result": 15, "unit": "nM"},
      {"measurement": "fold enhanced sensitivity of Brca1 mutant cells compared to wild type cells", "setting": "[6]; ratio of SF50 wild type / Brca1 deficient", "result": 467, "unit": "fold"}
    ]}
  ]
}
